The values below come from US4786755A, “Diphenic acid monoamides” (Warner-Lambert Company, priority 1986, dated 1988).

Like-named read-outs stand apart in the source and are kept apart here.

This assay concerns Human Basophils. Put plainly: Histamine Release from Human Basophils (HHB). To be noted: for inhibition at 33 µM: Homo sapiens, 33 μM cpd. It counts as cell-based. The text has this:
Histamine Release from Human Basophils (HHB) Procedure for Quantitating Active Histamine Release, and its Inhibition by Drugs, from Basophils of Human Blood Using an Automated Fluorometric Histamine Assay
Mediator (histamine) release from human blood basophils is an assay which provides a model for evaluating potential antiallergy (mediator release inhibitors) compounds.
Blood from allergic donors is obtained from volunteers through the Community Research Clinic. The leukocytes are removed after Hespan® sedimentation, washed and concentrated using calcium and magnesium free Hepes buffered saline and resuspended in Hepes Hepes buffered saline with 1 mM calcium and magnesium added back. The cells are incubated briefly at room temperature with either buffer alone (for measuring spontaneous release and challenge agent stimulated release) 6% perchloric acid (for measuring total available histamine in the cells) or drug at various concentrations. The cells are then either treated with buffer alone (to measure control spontaneous and drug effect on spontaneous release) or appropriate challenge agent (e.g., anti-IgE, antigen) mixed and incubated for 45 minutes at 37° C. in a shaking water bath. The reaction is stopped by centrifugation and the supernate is poured into autoanalyzer sample cups and samples assayed for assayed for histamine content using an automated fluorometric assay. By comparing the histamine release of drug-treated cells and the challenge agent controls, drug inhibition of mediator (histamine) release can be evaluated.
Histamine release is induced by (1) an aqueous antigen extract (short rageweed or house dust), or (2) anti-IgE antisera. Whole human blood is obtained from volunteers through the Community Research Clinic (CRC-92). Volunteers are chosen on the basis of adequate histamine release induced by antigen, or antiIgE antisera challenge. Leukocytes are incubated in vitro with the challenge agents at several concentrations. Dose-response curves for each volunteer, using each challenge agent, are generated. Test compounds are evaluated for inhibition of a near maximal response to one or more challenge agents. By including appropriate controls, it is possble to measure the effect of the test compound, at various concentrations, in several ways: (1) the effect of the compound on histamine release for each challenge agent; (2) the effect of the test compound on spontaneous release of histamine in the absence of the challenge agent (buffer alone); and (3) the effect of the test compound on the histamine assay.
Histamine is assayed using an automated continuous flow system which quantitates samples of 0.4 ml or more in volume, and concentrations of approximately 0.5 ng/ml or more. The rate of analysis is 30 samples/hour.
Methods of preparing leukocytes for this assay are described by Theuson, et al, J. of Immunology, Vol. 123, p. 426 (1979).
Samples are run in triplicate, using either 1.5 ml polypropylene capped reaction tubes, or 5.0 ml plastic uncapped tubes. Test compounds and challenge agents are prepared in HACM buffer, as described above. Fixed volume pipettes are used.
Test compound or vehicle control is added to three reaction tubes at 1.5×the final desired concentration (i.e., 400 μl of test compound per 600 μl total reaction volume). One hundred μl of cells is added to each tube and the mixture is incubated for eight minutes at room temperature, and two minutes at 37° C. before antigen or other stimulus challenge. One hundred μl of the challenge agent at 6× the final concentration is then added, and the final mixture is incubated at 37° C. for 45 minutes in a shaking water bath. This ensures that the cell preparation is constantly in suspension. The reaction is stopped by centrifugation at 2000 RPM for three minutes at 4° C. The supernate (.perspectiveto.500 μl) is poured into 2.0 ml autoanalyzer beakers and assayed for histamine by the fluorometric method. […]

The mark [1] stands for this setting: Tripeptide challenge, read-out: HHB (Tripeptide), percent inhibition of histamine release.
Setting [2] is: antigen challenge, read-out: HHB (antigen), percent inhibition of histamine release.

On to `O=C(O)c1ccccc1-c1ccccc1C(=O)Nc1ccc(CCCc2ccc(Cl)c(Cl)c2)cc1` [Example 1, [1,1'-Biphenyl]-2-carboxylic acid, 2'-[[[4-[3-(3,4-dichlorophenyl)propyl]phenyl]amino]carbonyl]-], for which the inhibition at 33 µM reads like this: under setting [1], 72%; under setting [2], 72%.
Take `O=C(O)c1ccccc1-c1ccccc1C(=O)Nc1ccc(OCCCc2ccccc2)cc1` [Example 2]: the inhibition at 33 µM is, setting by setting: under setting [1], 96%; under setting [2], 12%.
On the same counts, the results for `O=C(O)c1ccccc1-c1ccccc1C(=O)Nc1ccc(CCc2ccc(Cl)c(Cl)c2)cc1` [Example 3, [1,1'-Biphenyl]-2-carboxylic acid, 2'-[[[4-[2-(3,4-dichlorophenyl)ethyl]phenyl]amino]carbonyl]-] are 93% and 94%.
On the same counts, the results for `O=C(O)c1ccccc1-c1ccccc1C(=O)Nc1cccc(CCc2ccc(Cl)c(Cl)c2)c1` [Example 4, [1,1'-Biphenyl]-2-carboxylic acid, 2'-[[[3-[2-(3,4-dichlorophenyl)ethyl]phenyl]amino]carbonyl]-] are 97% and 101%.
For `CN(C(=O)c1ccccc1-c1ccccc1C(=O)O)c1ccc(CCc2ccc(Cl)c(Cl)c2)cc1` [Example 5, [1,1'-Biphenyl]-2-carboxylic acid, 2'-[[[4-[2-(3,4-dichlorophenyl)ethyl]phenyl]methylamino]carbonyl]-] the same measures were 83% and 72%.
In the case of `COc1ccc(CCc2ccc(NC(=O)c3ccccc3-c3ccccc3C(=O)O)cc2)cc1OC` [Example 7, [1,1'-Biphenyl]-2-carboxylic acid, 2'-[[[4-[2-(3,4-dimethoxyphenyl)ethyl]phenyl]amino]carbonyl]-], the inhibition at 33 µM under setting [1] worked out at 93% and the inhibition at 33 µM under setting [2] is -5%.
In the case of `CN(C(=O)c1ccccc1-c1ccccc1C(=O)O)c1ccc(CCc2ccc(Cl)cc2)cc1` [Example 8], the inhibition at 33 µM under setting [1] worked out at 111% and the inhibition at 33 µM under setting [2] was found to be 67%.
For the molecule `O=C(O)c1ccccc1-c1ccccc1C(=O)Nc1ccc(Cc2ccc(Cl)c(Cl)c2)cc1` [Example 9], the inhibition at 33 µM is, setting by setting: under setting [1], 100%; under setting [2], 87%.
Consider `O=C(O)c1ccccc1-c1ccccc1C(=O)Nc1ccc(CCCCc2ccc(Cl)c(Cl)c2)cc1` [Example 15, [1,1'-Biphenyl]-2-carboxylic acid, 2'-[[[4-[4-(3,4-dichlorophenyl)butyl]phenyl]amino]carbonyl]-], for which the “HHB (antigen), percent inhibition of histamine release @ 10” value (@ 10, antigen challenge) is listed as 39. The inhibition at 33 µM under setting [1] was -17%.
Regarding `O=C(O)c1ccccc1-c1ccccc1C(=O)Nc1ccc(CCCc2ccccc2)cc1` [Example 16, [1,1'-Biphenyl]-2-carboxylic acid, 2'-[[[4-(3-phenylpropyl]phenyl]amino]carbonyl]-], the inhibition at 33 µM under setting [1] was 84%.
As to `O=C(O)c1ccccc1-c1ccccc1C(=O)Nc1ccc(CCCCc2ccccc2)cc1` [Example 19, [1,1'-Biphenyl]-2-carboxylic acid, 2'-[[[4-(4-phenylbutyl)phenyl]amino]carbonyl]-], the inhibition at 33 µM was determined as 90% under setting [1] and 59% under setting [2].
For `O=C(O)c1ccccc1-c1ccccc1C(=O)Nc1ccc(CCCCCc2ccccc2)cc1` [Example 21, [1,1'-Biphenyl]-2-carboxylic acid, 2'-[[[4-(5-phenylpentyl)phenyl]amino]carbonyl]-] the same measures were 93% and 91%.
